Results published in patent US6262073A, “Pharmaceutical methods of use of 5-substituted and 5,5 disubstituted-3,4-dihydroxy-2(5H)-furanones” (Oxis International Inc., priority 2000, dated 2001).

Tests used:
[1] = target: T1, Cyclooxygenase-1 (cyclooxygenase from ram seminal vesicles) (Ovis aries, UniProt P05979); assay: Cyclooxygenase-1 screen (COX-1); assay type: biochemical; details: 300 μM
T1 construct: cyclooxygenase from ram seminal vesicles; from tissue; host or cells: ram seminal vesicles
T1 sequence (P05979 25-600): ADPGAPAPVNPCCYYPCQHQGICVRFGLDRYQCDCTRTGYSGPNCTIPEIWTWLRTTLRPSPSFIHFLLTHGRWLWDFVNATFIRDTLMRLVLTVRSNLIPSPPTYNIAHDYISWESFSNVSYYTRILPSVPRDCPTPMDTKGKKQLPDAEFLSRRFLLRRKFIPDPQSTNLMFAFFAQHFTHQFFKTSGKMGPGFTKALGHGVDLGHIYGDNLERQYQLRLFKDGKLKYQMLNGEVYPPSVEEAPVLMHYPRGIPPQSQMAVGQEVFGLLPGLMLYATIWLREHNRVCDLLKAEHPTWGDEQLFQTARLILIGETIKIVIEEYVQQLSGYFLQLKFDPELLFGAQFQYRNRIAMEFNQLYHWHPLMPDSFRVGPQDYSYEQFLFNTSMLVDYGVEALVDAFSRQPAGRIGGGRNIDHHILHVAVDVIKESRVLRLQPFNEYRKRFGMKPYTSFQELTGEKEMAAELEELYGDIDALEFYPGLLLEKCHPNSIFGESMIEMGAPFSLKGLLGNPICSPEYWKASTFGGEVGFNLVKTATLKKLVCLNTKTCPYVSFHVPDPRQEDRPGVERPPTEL
Protocol: (§1) The compounds of the invention were screened for their anti-inflammatory activity using a series of in vitro tests the details of which are given below. The activity of various compounds against 5-lipoxygenase, cycloxygenase-1, cycloxygenase-2 and lipid peroxidase was evaluated. Results of the screening procedures are included in TABLE I, and the activity against 5-lipoxygenase at a test concentration of 1 μM in Table II.
Cyclooxygenase-1 is involved in the formation of prostaglandins and thromboxane via the oxidative metabolism of arachidonic acid. Briefly, cyclooxygenase from ram seminal vesicles is incubated with arachidonic acid (100 μm) for 2 minutes at 37° C. in the presence or absence of test compounds according to the methods of A. T. Evans et al., Biochem. Pharm. 36:2035-2037(1987) and R. Boopathy et al., Biochem J. 239:371-377 (1968). The assay is terminated by the addition of trichioroacetic acid and cyclooxygenase activity is determined by reading the absorbance at 530 nm. […]

[2] = target: T2, Cyclooxygenase-2 (prostaglandin H synthetase-2) from sheep placenta (Ovis aries, UniProt P79208); assay: Cyclooxygenase-2 screen (COX-2); assay type: biochemical; details: read-out: COX-2 percent inhibition
T2 construct: cyclooxygenase-2 from sheep placenta; from tissue; host or cells: sheep placenta
T2 sequence (P79208 17-603): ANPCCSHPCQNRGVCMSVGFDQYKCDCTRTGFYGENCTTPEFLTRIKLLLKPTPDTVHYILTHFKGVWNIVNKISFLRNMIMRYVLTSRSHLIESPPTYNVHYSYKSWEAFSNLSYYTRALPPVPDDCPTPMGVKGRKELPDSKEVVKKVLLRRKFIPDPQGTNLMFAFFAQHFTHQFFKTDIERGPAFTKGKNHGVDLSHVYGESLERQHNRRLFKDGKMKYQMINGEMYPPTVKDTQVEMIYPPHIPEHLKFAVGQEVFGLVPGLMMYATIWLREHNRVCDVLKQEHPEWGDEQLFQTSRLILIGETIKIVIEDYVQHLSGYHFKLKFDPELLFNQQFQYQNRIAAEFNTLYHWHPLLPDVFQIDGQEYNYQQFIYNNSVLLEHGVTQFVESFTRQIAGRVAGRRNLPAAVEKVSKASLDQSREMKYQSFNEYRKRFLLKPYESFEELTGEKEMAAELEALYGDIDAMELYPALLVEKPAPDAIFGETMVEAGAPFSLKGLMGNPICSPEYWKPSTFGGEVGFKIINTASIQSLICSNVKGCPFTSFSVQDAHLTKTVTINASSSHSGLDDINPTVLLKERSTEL
Protocol: as §1
Cyclooxygenase-2, also known as prostaglandin H synthetase-2, catalyzes the rate- limiting step in the synthesis of inflammatory prostaglandins. In this reaction cyclooxygenase-2 catalyzes the oxygenation of unesterified precursors to form cyclic endoperoxide derivatives, including prostaglandin H. Briefly, cyclooxygenase-2 from sheep placenta, 14 μg/assay tube, is incubated with arachidonic acid (500 μM) for 1.5 minutes at 27° C. in the absence or presence of test compounds according to the methods of A. T. Evans, et al., Biochem Pharm. […] Res. Comm. […] Compounds are screened at 300 μM.

[3] = target: T3, 5-Lipoxygenase (crude enzyme preparation from rat basophilic leukemia cells, RBL-1) (Rattus norvegicus, UniProt P12527); assay: 5-Lipoxygenase screen (5-LO), 5-HETE by RIA; assay type: biochemical; details: for inhibition at 30 µM: read-out: 5-LO percent inhibition; for inhibition at 1 µM: read-out: Percent inhibition of 5-LO, test conc. 1 μM (Table II)
T3 construct: crude enzyme preparation from rat basophilic leukemia cells (RBL-1); endogenous in cells; host or cells: rat basophilic leukemia cells (RBL-1)
T3 sequence (P12527 1-673): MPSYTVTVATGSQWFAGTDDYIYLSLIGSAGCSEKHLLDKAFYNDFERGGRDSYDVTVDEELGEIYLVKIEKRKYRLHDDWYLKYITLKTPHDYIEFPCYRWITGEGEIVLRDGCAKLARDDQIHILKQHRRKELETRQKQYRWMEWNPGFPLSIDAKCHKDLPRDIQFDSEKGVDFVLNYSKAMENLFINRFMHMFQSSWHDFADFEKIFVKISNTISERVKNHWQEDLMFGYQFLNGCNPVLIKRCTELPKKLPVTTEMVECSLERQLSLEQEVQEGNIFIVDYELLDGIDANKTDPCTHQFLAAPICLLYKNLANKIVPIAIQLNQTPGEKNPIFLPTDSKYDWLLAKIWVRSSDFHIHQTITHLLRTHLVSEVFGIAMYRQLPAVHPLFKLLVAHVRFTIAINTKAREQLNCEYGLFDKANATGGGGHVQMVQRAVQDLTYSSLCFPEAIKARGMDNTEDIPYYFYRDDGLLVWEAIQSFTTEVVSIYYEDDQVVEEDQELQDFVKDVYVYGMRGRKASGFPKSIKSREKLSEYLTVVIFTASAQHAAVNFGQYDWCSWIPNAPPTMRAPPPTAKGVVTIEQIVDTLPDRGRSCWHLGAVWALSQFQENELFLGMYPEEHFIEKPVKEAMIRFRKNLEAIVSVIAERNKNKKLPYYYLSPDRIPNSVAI
Protocol: as §1
5-Lipoxygenase catalyzes the oxidative metabolism of arachidonic acid to […] (5-HETE), the initial reaction leading to the formation of the leukotrienes. Briefly, the testing procedure utilizes a crude enzyme preparation from rat basophilic leukemia cells (RBL-1) according to the methods of T. Shimuzu et al. Pro. […] Test compounds are pre-incubated with the enzyme preparation for 5 minutes at room temperature and the reaction is initiated by the addition of arachidonic acid. Following an 8 minute incubation at room temperature, the reaction is terminated by the addition of citric acid and concentrations of 5-HETE are determined by RIA. Compounds are screened at 30 μM.

[4] = system: Lipid peroxidation (rat liver microsomes); assay: Lipid peroxidation screen (LPO), CCl4-induced, liver microsomes; assay type: biochemical; details: 300 μM
Protocol: as §1
Lipid peroxidation is a consequence of various stimuli, including reactive free radicals. Polyunsaturated fatty acids associated with plasma membranes are degraded due to enzymatic induction by reactive agents such as CCl4, leading to cellular damage. Briefly, microsomes are prepared from rat livers and the protein concentration is determined according to the method of D. Mansuy et al., Biochem. Biophys. Res. Comm. 135:1015-1021(1986). A reaction mixture consisting of 2 mg of the microsomal preparation, an NADPH generating system, 20 mM CCl4 and test compound are incubated for 12 minutes at 37° C. The reaction is terminated by the addition of a mixture of thiobarbituric acid and trichloroacetic acid. The absorbance is read at 535 nm and is proportional to the concentration of malondialdehyde. Compounds are screened at 300 μM.

[5] = system: Nuclear Factor-kappa B (NF-κB); assay: NF-κB lacZ (κB-Z) reporter assay in transfected Jurkat cells stimulated with A23187 and PMA; assay type: cell-based, human; details: Homo sapiens; 10 μM; κB-Z Jurkat cells, A23187 and PMA (Table III); read-out: NF-κB percent inhibition
Protocol: The human T lymphoid cell line Jurkat was transfected with a response element lacZ reporter in which transcription of the β-galactosidase gene is directed by the binding site for the NF-κB transcription factor. […] At the end of the incubation, the cells are spun down and resuspended in the buffer and FDG (fluorescein di-β-D-galactopyranoside) solution. The covered plates are further incubated in the dark for 16 hours at 25° C. […] Compounds were screened at 10 μM.

[6] = system: NF-κB; assay: NF-κB nuclear membrane translocation, EMSA, LPS-treated NR8383 cells; assay type: cell-based; details: Rattus norvegicus
Protocol: Experiments measuring test agents effect on NF-κB nuclear membrane translocation were performed with NR8383 cells, which are transformed rat alveolar macrophages. […] In addition, some compounds were tested at doses of 10 and 30 μM. Untreated control cells and cells treated with LPS alone were tested in each experiment. Cells were harvested 6 hours after treatment. Nuclear proteins were extracted, frozen and quantified using the Bradford assay. Electrophoretic mobility shift assays (EMSA) were subsequently analyzed using a radiolabeled NF-κB probe. Nuclear proteins were reacted with the radiolabeled probe, run on a 5% polyacrylamide gel, and subjected to autoradiography. Specificity of protein binding for the NF-κB binding site was assayed by cold and nonspecific competition using the LPS treated sample in each experiment. All EMSA were duplicated at least once to verify results. Laser densitometry of NF-κB bands was done on autoradiographs to quantify NF-κB binding activity.

SMILES: O=C1OC(CCSc2nc(-c3ccccc3)c(-c3ccccc3)o2)C(O)=C1O (stereo not shown) [Example 24, 3,4-Dihydroxy-5-[2-(4,5-diphenyl-1,3-oxazole-2-thio)ethyl]-2(5H)-furanone]
- COX-1 percent inhibition [1]: 76%
- inhibition at 300 µM [2]: 68%
- inhibition at 30 µM [3]: 113%
- inhibition at 1 µM [3]: 71%
- LPO percent inhibition [4]: 78%
- inhibition at 10 µM [5]: 44%

SMILES: CCCC1(c2ccc(-c3ccccc3)cc2)OC(=O)C(O)=C1O (stereo not shown) [Example 5, 5-[(1,1'-Biphenyl)-4-yl]-3,4-dihydroxy-5-propyl-2(5H)-furanone]
- COX-1 percent inhibition [1]: 13%
- inhibition at 300 µM [2]: 22%
- inhibition at 30 µM [3]: 99%
- inhibition at 1 µM [3]: 68%
- LPO percent inhibition [4]: 70%
- inhibition at 10 µM [5]: 68%

SMILES: CC(C)Cc1ccc([C@]2(C)OC(=O)C(O)=C2O)cc1 [Example 14, (S)-(+)-3,4-Dihydroxy-5-methyl-5-[4-(2-methylpropyl)phenyl]-2(5H)-furanone]
- COX-1 percent inhibition [1]: 12%
- inhibition at 300 µM [2]: 18%
- inhibition at 30 µM [3]: 96%
- inhibition at 1 µM [3]: 50%
- LPO percent inhibition [4]: 66%
- inhibition at 10 µM [5]: 60%

SMILES: CC1(c2ccc(-c3ccccc3)cc2)OC(=O)C(O)=C1O (racemic) [Example 2, 5-[(1,1'-Biphenyl)-4-yl]-3,4-dihydroxy-5-methyl-2(5H)-furanone]
- COX-1 percent inhibition [1]: 33%
- inhibition at 300 µM [2]: 22%
- inhibition at 30 µM [3]: 107%
- inhibition at 1 µM [3]: 15%
- LPO percent inhibition [4]: 78%
- inhibition at 10 µM [5]: 90%

SMILES: O=C1OC(CCC#Cc2ccc3ccccc3c2)C(O)=C1O (stereo not shown) [Example 32, 3,4-Dihydroxy-5-[4-(2-naphthyl)-3-butynyl]-2(5H)-furanone]
- COX-1 percent inhibition [1]: 34%
- inhibition at 300 µM [2]: 23%
- inhibition at 30 µM [3]: 98%
- inhibition at 1 µM [3]: 66%
- LPO percent inhibition [4]: 75%
- inhibition at 0.03 µM ([6]; 30 nM, LPS 1 μg/ml, NR8383 cells, 6 hours): 90%

SMILES: CCCC1(c2ccc(CC(C)C)cc2)OC(=O)C(O)=C1O (stereo not shown) [Example 9, 3,4-Dihydroxy-5-(4-isobutylphenyl)-5-(1-propyl)-2(5H)-furanone]
- COX-1 percent inhibition [1]: 25%
- inhibition at 300 µM [2]: 19%
- inhibition at 30 µM [3]: 82%
- inhibition at 1 µM [3]: 40%
- LPO percent inhibition [4]: 79%
- inhibition at 10 µM [5]: 26%

SMILES: CC(C)CC1(c2ccc(-c3ccccc3)cc2)OC(=O)C(O)=C1O (stereo not shown) [Example 6, 5-[(1,1'-Biphenyl)-4-yl]-3,4-dihydroxy-5-(2-methylpropyl)-2(5H)-furanone]
- COX-1 percent inhibition [1]: 67%
- inhibition at 300 µM [2]: 46%
- inhibition at 30 µM [3]: 96%
- inhibition at 1 µM [3]: 70%
- LPO percent inhibition [4]: 82%
- inhibition at 10 µM [5]: 59%

SMILES: CC(C)Cc1ccc([C@@]2(C)OC(=O)C(O)=C2O)cc1 [Example 13, (R)-(-)-3,4-Dihydroxy-5-methyl-5-[4-(2-methylpropyl)phenyl]-2(5H)-furanone]
- COX-1 percent inhibition [1]: 12%
- inhibition at 300 µM [2]: 14%
- inhibition at 30 µM [3]: 102%
- inhibition at 1 µM [3]: 59%
- LPO percent inhibition [4]: 76%
- inhibition at 10 µM [5]: 49%

SMILES: C[C@@H]1C[C@H]2[C@@H]3CCC4=CC(=O)C=C[C@]4(C)[C@@]3(F)[C@@H](O)C[C@]2(C)[C@@]1(O)C(=O)CO [Dexamethasone]
- inhibition at 1 µM ([6]; 6 h, read-out: % Inhibition (NF-κB nuclear translocation)): 60%

SMILES: C[C@]1(c2ccc(-c3ccccc3)cc2)OC(=O)C(O)=C1O [Example 12, (R)-(-)-5-[(1,1'-Biphenyl)-4-yl]-3,4-dihydroxy-5-methyl-2(5H)-furanone]
- COX-1 percent inhibition [1]: 10%
- inhibition at 300 µM [2]: 12%
- inhibition at 30 µM [3]: 101%
- inhibition at 1 µM [3]: 60%
- LPO percent inhibition [4]: 62%
- inhibition at 10 µM [5]: 56%
